Experimental data: patent publication US20250026753A1, “FUSED TRIAZINONE DERIVATIVES AND METHODS OF USING THE SAME” (Rgenta Therapeutics, Inc., priority 2021, published 2025)
Where a name gives a salt, the structure may show the parent alone.

How the values were obtained:
COLO201 = assay: Cell proliferation assay (CellTiterGlo, 72 hour incubation), COLO201; type: cell-based; settings: Homo sapiens, COLO 201, COLO201 cells, inhibition of cell proliferation, CellTiterGlo luminescence
Protocol: (§1) Various cancer cell lines including K562 and COLO201, were treated with the compounds of the present disclosure to assess their effect on inhibiting cell proliferation.
(§2) For compound preparation, test compounds were diluted in duplicates from 10 mM stocks in 11-points 1:3 serial dilutions in DMSO. Then 125 nL test compounds at the serial dilutions were dispensed into 384-well assay plate using Echo dispenser. Staurosporine at 1 mM stock (5 μM final concentration) and DMSO (0.500 final concentration) were used as the positive and negative controls respectively.
(§3) To prepare cell lines, each frozen cell line stock was resuspended and grown in proper growth medium to a density of 40,000 cells/mL. Then 25 μL of cell suspension were dispensed into the assay plate to give seed cell density at 1,000 cells/well, compounds at 50 μM top concentration with 11-point serial dilutions, and 0.5% o DMSO final concentration. Assay plates were then centrifuged at 300 rpm for 1 minute and then incubated at 37° C., 9500 humidity, 500 CO2 for 72 hours. After the 72 hour incubation, the assay plate and its contents were equilibrated at room temperature for approximately 30 minutes. 25 μL of CellTiterGlo reagent was added to the assay plate and mixed for two minutes on an orbital shaker. Then after 10 minutes of incubation of assay plate at from temperature, the luminescence (RLU) signals in each well were recorded using Envision plate reader, then converted to percentage inhibition values using the signals in staurosporine and DMSO treated wells as the references. IC50 values were determined by curve fitting in Levenberg-Marquardt algorithm.

K562 = assay: Cell proliferation assay (CellTiterGlo, 72 hour incubation), K562; type: cell-based; settings: Homo sapiens, K562 cells, inhibition of cell proliferation, CellTiterGlo luminescence
Protocol: as §1, §2, §3

Row | SMILES | IC50 (COLO201) [µM] | IC50 (K562) [µM]
1 | Cc1cn2cc(-c3nc(=O)n4cc(N5CCNCC5)cc(C)c4n3)cc(F)c2n1 [Compound 108, 2-(8-fluoro-2-methylimidazo[1,2-a]pyridin-6-yl)-9-methyl-7-(piperazin-1-yl)-4H-pyrido[1,2-a][1,3,5]triazin-4-one hydrochloride] | < 1 | 1 to 10
2 | Cc1cn2cc(-c3nc(=O)n4cc(N5CCN[C@@H](C)C5)cc(C)c4n3)cc(F)c2n1 [Compound 117, (S)-2-(8-fluoro-2-methylimidazo[1,2-a]pyridin-6-yl)-9-methyl-7-(3-methylpiperazin-1-yl)-4H-pyrido[1,2-a][1,3,5]triazin-4-one hydrochloride] | < 1 | < 1
3 | C[C@H]1CN(c2ccc3nc(-c4cc(F)c5nn(C)cc5c4)nc(=O)n3c2)CCN1 [Compound 133, (S)-2-(7-fluoro-2-methyl-2H-indazol-5-yl)-7-(3-methylpiperazin-1-yl)-4H-pyrido[1,2-a][1,3,5]triazin-4-one hydrochloride] | 1 to 10 | < 1
4 | Cc1cn2cc(-c3nc(=O)n4cc(N5CCNC(C)(C)C5)ccc4n3)cc(F)c2n1 [Compound 109, 7-(3,3-dimethylpiperazin-1-yl)-2-(8-fluoro-2-methylimidazo [1,2-a]pyridin-6-yl)-4H-pyrido[1,2-a][1,3,5]triazin-4-one] | < 1 | < 1
5 | Cc1cn2cc(-c3nc(=O)n4cc(N5CC6CCC(C5)N6)ccc4n3)cc(F)c2n1 [Compound 105, 7-(3,8-diazabicyclo[3.2.1]octan-3-yl)-2-(8-fluoro-2-methylimidazo[1,2-a]pyridin-6-yl)-4H-pyrido[1,2-a][1,3,5]triazin-4-one hydrochloride] | ≥ 10 | ≥ 10
6 | Cc1cc2cc(-c3nc(=O)n4cc(N5CCN[C@@H](C)C5)cc(F)c4n3)cc(C)n2n1 [Compound 131, 2-{2,7-dimethylpyrazolo[1,5-a]pyridin-5-yl}-9-fluoro-7-[(3S)-3-methylpiperazin-1-yl]-4H-pyrido[1,2-a][1,3,5]triazin-4-one] | < 1 | < 1
7 | Cc1cn2cc(-c3nc(=O)n4cc(N5CCCNCC5)ccc4n3)cc(F)c2n1 [Compound 104, 7-(1,4-diazepan-1-yl)-2-(8-fluoro-2-methylimidazo[1,2-a]pyridin-6-yl)-4H-pyrido[1,2-a][1,3,5]triazin-4-one hydrochloride] | ≥ 10 | ≥ 10
8 | Cc1cn2cc(-c3nc(=O)n4cc(N5C[C@@H](C)N[C@@H](C)C5)ccc4n3)cc(F)c2n1 [Compound 107, 7-((3S,5R)-3,5-dimethylpiperazin-1-yl)-2-(8-fluoro-2-methylimidazo[1,2-a]pyridin-6-yl)-4H-pyrido[1,2-a][1,3,5]triazin-4-one hydrochloride] | < 1 | < 1
9 | COc1cc2nc(-c3cc(F)c4nc(C)cn4c3)nc(=O)n2cc1N1CCNCC1 [Compound 119, 2-(8-fluoro-2-methylimidazo[1,2-a]pyridin-6-yl)-8-methoxy-7-(piperazin-1-yl)-4H-pyrido[1,2-a][1,3,5]triazin-4-one] | 1 to 10 | 1 to 10
10 | Cc1cn2cc(-c3nc(=O)n4cc(N5CC6CNCC6C5)ccc4n3)cc(F)c2n1 (centres unmarked) [Compound 106, 2-(8-fluoro-2-methylimidazo[1,2-a]pyridin-6-yl)-7-(hexahydropyrrolo[3,4-c]pyrrol-2(1H)-yl)-4H-pyrido[1,2-a][1,3,5]triazin-4-one hydrochloride] | ≥ 10 | ≥ 10
11 | Cc1cn2cc(-c3nc(=O)n4c(C)c(N5CCNCC5)ccc4n3)cc(F)c2n1 [Compound 122, 2-(8-fluoro-2-methylimidazo[1,2-a]pyridin-6-yl)-6-methyl-7-(piperazin-1-yl)-4H-pyrido[1,2-a][1,3,5]triazin-4-one hydrochloride] | ≥ 10 | 1 to 10
12 | Cc1cn2cc(-c3nc(=O)n4cc(N5CCNCC5)c(C)cc4n3)cc(F)c2n1 [Compound 115, 2-(8-fluoro-2-methylimidazo[1,2-a]pyridin-6-yl)-8-methyl-7-(piperazin-1-yl)-4H-pyrido[1,2-a][1,3,5]triazin-4-one hydrochloride] | 1 to 10 | < 1
13 | COc1c(N2CCNCC2)ccc2nc(-c3cc(F)c4nc(C)cn4c3)nc(=O)n12 [Compound 120, 2-(8-fluoro-2-methylimidazo[1,2-a]pyridin-6-yl)-6-methoxy-7-(piperazin-1-yl)-4H-pyrido[1,2-a][1,3,5]triazin-4-one formic acid] | ≥ 10 | ≥ 10
